Patent publication US12390626B2, “Method of producing substances with supersaturated gas, transdermal delivery device thereof, and uses thereof” (Circularity Healthcare, LLC, priority 2012, dated 2025)
Values joined by “and” are separate entries in the source; they are usually repeats but may differ in a detail not shown here. Equal entries are not always repeated.

Tests used:
[1] = tested on: individuals; assay: Measurement of blood flow: Skin Perfusion Pressure (SensiLase System, laser Doppler) on right toe after transdermal CO2 vapor treatment of left thumb; type: in vivo, human; conditions: for SPP: right toe
Protocol: (§1) The treatment was administered by having an individual insert the left thumb into the open-ended delivery outlet of a device disclosed herein creating a seal. The digit will be “bathed” for five minutes with a vapor including supersaturated dissolved molecular carbon dioxide from a canister providing pure, medical-grade carbon dioxide. Nine individuals were examined.
Tissue perfusion in distal arteries was accessed using a SensiLase System (a FDA-cleared device) and measuring Skin Perfusion Pressure (SPP) and Pulse Volume Recording (PVR). SPP is a pressure measurement in mmHg that assess local blood perfusion in capillaries using a laser Doppler to measure reactive hyperemia, which reflects microcirculation for distal arterial blood flow. PVR is a measurement of plethysmography to assess changes in arterial blood volume. A change in capillary blood flow (CBF) is calculated by determining the change in SPP values over time. For this study, the CBF values of all post-treatment measurements were calculated by dividing the post-treatment SPP value by the pre-treatment SPP value. A measurement of SPP was performed on the individual's right toe at six time points 1) 5 minutes before treatment (pre-treatment); 2) 5 minutes post-treatment; 3) 30 minutes post-treatment; 4) 60 minutes post-treatment; 5) 120 minutes post-treatment; and 6) 240 minutes post-treatment.

[2] = tested on: individuals; assay: Measurement of blood pressure: brachial diastolic and systolic, right upper arm, after transdermal CO2 vapor treatment; type: in vivo, human; set-up: Brachial Systolic / Brachial Diastolic: unit not given here; conditions: for Brachial Diastolic Percent / Brachial Systolic Percent: percent of pre-treatment; for Brachial Diastolic Percent / Brachial Systolic Percent / Brachial Diastolic / Brachial Systolic: per patient
Protocol: as §1
To conduct this study, individuals from the study described in Example 1 had there blood pressure taken. A measurement of both brachial diastolic blood pressure and systolic blood pressure was performed on the individual's right upper arm at six time points 1) 5 minutes before treatment (pre-treatment); 2) 5 minutes post-treatment; 3) 30 minutes post-treatment; 4) 60 minutes post-treatment; 5) 120 minutes post-treatment; and 6) 240 minutes post-treatment.

[3] = nine individuals, 5-240 min post-treatment
[4] = seven of the nine individuals studied
[5] = Post Treatment (5 min), right upper arm

SMILES: O=C=O [molecular carbon dioxide, carbon dioxide]
- CBF ([1]; Post Treatment (5 min), post-treatment SPP / pre-treatment SPP, per patient): 124% and 104% and 102% and 87% and 117% and 122% and 109% and 113% and 114%
- SPP ([1]; Post Treatment (5 min), one value per patient (1-9), 5 min vapor on left thumb): 52 mmHg and 85 mmHg and 84 mmHg and 60 mmHg and 75 mmHg and 89 mmHg and 116 mmHg and 71 mmHg and 132 mmHg
- CBF ([1]; Post Treatment (30 min), post/pre-treatment SPP, per patient): 124% and 112% and 109% and 91% and 119% and 92% and 106% and 114%
- SPP ([1]; Post Treatment (30 min), per patient): 54 mmHg and 0 mmHg and 92 mmHg and 75 mmHg and 58 mmHg and 87 mmHg and 97 mmHg and 67 mmHg and 142 mmHg
- CBF ([1]; Post Treatment (60 min), post/pre-treatment SPP, per patient): 124% (2×) and 102% and 104% and 112% and 84% and 103% and 114% and 134%
- SPP ([1]; Post Treatment (60 min), per patient): 54 mmHg (2×) and 84 mmHg and 85 mmHg and 77 mmHg and 75 mmHg and 131 mmHg and 72 mmHg and 156 mmHg
- CBF ([1]; Post Treatment (120 min), post/pre-treatment SPP, per patient): 138% and 135% and 109% and 112% and 125% and 129% and 82% and 106% and 119%
- SPP ([1]; Post Treatment (120 min), per patient): 58 mmHg and 111 mmHg and 89 mmHg and 77 mmHg and 80 mmHg and 94 mmHg and 87 mmHg and 67 mmHg and 138 mmHg
- CBF ([1]; Post Treatment (240 min), post/pre-treatment SPP, per patient): 110% and 120% and 135% and 46% and 95% and 104% and 82% and 103% and 115%
- SPP ([1]; Post Treatment (240 min), per patient): 46 mmHg and 98 mmHg and 111 mmHg and 32 mmHg and 61 mmHg and 76 mmHg and 91 mmHg and 65 mmHg and 133 mmHg
- increase in capillary blood flow ([1]; four of these (of the seven of nine individuals)): ≥ 35%
- effect on blood flow [1, 3]: increases blood flow in all individuals examined at some point during the time period measured
- increase in capillary blood flow over baseline [1, 4]: about 25%
- duration of increase in capillary blood flow ([1]; six of the nine patients): sustained increases in capillary blood flow over the course of the entire 240 minute study
- Brachial Diastolic Percent ([2]; Post Treatment (5 min)): 98% and 100% and 77% (2×) and 113% and 80% (2×) and 89% and 111%
- Brachial Systolic Percent ([2]; Post Treatment (5 min)): 92% (2×) and 94% (2×) and 95% and 79% and 98% and 73% and 80%
- Brachial Diastolic [2, 5]: 78 and 68 (3×) and 60 (2×) and 72 (2×) and 80
- Brachial Systolic [2, 5]: 110 (2×) and 132 and 104 and 98 and 124 and 101 and 112 (2×)
- Brachial Diastolic ([2]; Post Treatment (30 min)): 70 (3×) and 58 and 62 and 78 and 80 and 52
- Brachial Systolic ([2]; Post Treatment (30 min)): 110 and 98 and 100 and 112 (2×) and 118 (3×)
- Brachial Diastolic Percent ([2]; Post Treatment (30 min)): 88% and 73% and 103% and 87% (2×) and 100% and 67% and 92%
- Brachial Systolic Percent ([2]; Post Treatment (30 min)): 92% and 89% and 96% and 80% and 94% and 81% and 84% and 97%
- Brachial Diastolic ([2]; Post Treatment (60 min)): 82 and 70 and 78 (2×) and 60 and 68 and 50 and 72 and 62
- Brachial Systolic ([2]; Post Treatment (60 min)): 138 and 118 (2×) and 115 and 150 and 106 and 110 (2×) and 128
- Brachial Diastolic Percent ([2]; Post Treatment (60 min)): 108% and 97% and 98% and 88% and 87% (2×) and 83% and 90% and 79%
- Brachial Systolic Percent ([2]; Post Treatment (60 min)): 99% and 97% and 96% (2×) and 107% and 106% and 79% and 102% and 86%
- Brachial Diastolic ([2]; Post Treatment (120 min)): 68 (2×) and 70 (2×) and 60 and 49 and 62 and 65 and 69
- Brachial Systolic ([2]; Post Treatment (120 min)): 120 and 128 and 90 and 127 and 102 and 110 and 111 and 116 and 118
- Brachial Diastolic Percent ([2]; Post Treatment (120 min)): 89% and 97% and 75% and 72% (2×) and 79% and 117% and 86% and 87%
- Brachial Systolic Percent ([2]; Post Treatment (120 min)): 86% (2×) and 105% and 75% and 91% and 93% and 106% and 79% and 92%
- Brachial Diastolic ([2]; Post Treatment (240 min)): 70 and 64 and 59 and 80 and 68 and 58 and 62 and 71 and 69
- Brachial Systolic ([2]; Post Treatment (240 min)): 118 (2×) and 108 (2×) and 113 and 140 and 112 (2×) and 117
- Brachial Diastolic Percent ([2]; Post Treatment (240 min)): 92% and 89% (2×) and 74% and 118% and 87% and 97% and 69% and 88%
- Brachial Systolic Percent ([2]; Post Treatment (240 min)): 84% and 89% and 94% (2×) and 100% and 102% and 104% and 80% and 85%
- effect on blood pressure [2, 3]: decreased blood pressure in all individuals examined at some point during the time period measured
- duration of decrease in diastolic and systolic blood pressure [2, 4]: decreased diastolic and systolic blood pressure over the course of the entire 240 minute study
